This is an account of results in ChEMBL document CHEMBL1201862, “PubChem BioAssay data set” (2004).

Experiment in all cases: DTP human tumour cell line panel, 48 h
For assay [1], the system named is ACHN.
Assay [2] has as its system SK-MEL-2.
For assay [3], the system named is SK-OV-3.
The subject of assay [4] is OVCAR-5.
In assay [5] the test system is SK-MEL-28.
In assay [6] the test system is K562.
Assay [7] concerns OVCAR-8.
For assay [8], the system named is HCT-15.
In assay [9] the test system is UO-31.
Assay [10] concerns NCI-H522.
For assay [11], the system named is HT-29.
Assay [12] relates to SNB-75.
The subject of assay [13] is SNB-19.
Assay [14] has as its system HOP-62.
Assay [15] has as its system IGROV-1.
For assay [16], the system named is Malme-3M.
For assay [17], the system named is 786-0.
For assay [18], the system named is SR.
For assay [19], the system named is EKVX.
The test system of assay [20] is UACC-257.

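Assay format: 96-well plates, 48-hour exposure. GI50 marks 50% less growth.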 Active and inactive are the calls of the source. No stated cut-off is given here; in the data, active = GI50 up to about 1.1 µM and inactive = higher. *1 amine or outer side, *2 acyl side, *3 side chain or, on linkers, in order; H or OH if unused. Where a SMILES comes first, the peptide text is derived from it. Bridges are numbered along the chain shown (N, C = ends). Roman numbers before positions name the chains, in order. [ ]: non-standard residue; d: D form. Actinocin(9to1) = Cc1c2oc3c(C)ccc(C(=O)[*:1])c3nc-2c(C(=O)[*:2])c(N)c1=O; NMeV = CN[CH](C(=O)O)C(C)C; Sar = CNCC(=O)O

A word on the GI50: it is the concentration that inhibits growth by half. For the molecule `CC1(CO)OC(n2cnc3c(N)ncnc32)C(O)C1O` (stereo not given), the GI50 in [1], in [2], in assay [3], in assay [4], in assay [5] and in assay [6] was > 100 µM (inactive) in each case. Besides, the GI50 is > 100 µM (inactive) in assay [7]; above 100 µM in assay [8]; > 100 µM (inactive) in [9]; > 100 µM (inactive) in [10]; > 100 µM (inactive) in [11]; 87.3 µM (inactive) in [12]. The GI50 in [13], in assay [14], in [15], in assay [16], in assay [17] and in assay [18] was > 100 µM (inactive) throughout.
As to `N[C@]1(C(=O)O)C[C@@H]2C(Br)=NO[C@@H]2C1`, the GI50 is > 100 µM (inactive) in assay [1]; > 100 µM (inactive) in [2]; > 100 µM (inactive) in assay [3]; > 100 µM (inactive) in assay [4]; > 100 µM (inactive) in assay [7]; 76.9 µM in [8]. The GI50 in assay [9] was > 100 µM (inactive); in assay [10], > 100 µM (inactive); in [11], > 100 µM (inactive); in assay [19], 70.3 µM (inactive); in assay [12], > 100 µM (inactive); in [13], > 100 µM (inactive). In addition, the GI50 in assay [20] is > 100 µM (inactive); in [14], > 100 µM (inactive); in [16], > 100 µM (inactive); in assay [17], > 100 µM (inactive); in assay [18], 78.9 µM (inactive).
For `Cc1ccc(O)c(C(c2ccc([N+](=O)[O-])cc2)c2cc(C)ccc2O)c1`, the GI50 is 6.1 µM (inactive) in assay [1]; 11.5 µM (inactive) in [2]; 15.1 µM (inactive) in [3]; 14.6 µM (inactive) in assay [4]; 16.6 µM (inactive) in assay [5]; 12.2 µM (inactive) in assay [6]. Moreover, the GI50 in assay [7] was 11.7 µM (inactive); in [8], 8.18 µM; in assay [9], 3.27 µM (inactive); in [10] it was 12.3 µM (inactive); in assay [11], 12.2 µM (inactive); in assay [19], 14.3 µM (inactive). The GI50 is 2.18 µM (inactive) in assay [12]; 13.1 µM (inactive) in [13]; 14.6 µM (inactive) in [20]; 10.8 µM (inactive) in assay [14]; 11 µM (inactive) in assay [15]; 21.2 µM (inactive) in assay [17]. The GI50 in assay [18] is 3.98 µM (inactive).
For the molecule `CC1OC1C(=O)P(=O)(O)O` (stereo not given), the GI50 in assay [1], in [2], in assay [3], in [4], in assay [5] and in [6] was > 100 µM (inactive) in each case. Further, the GI50 in [7] is > 100 µM (inactive); in [8], above 100 µM; in assay [9] it was > 100 µM (inactive); in assay [10], > 100 µM (inactive); in assay [19], > 100 µM (inactive); in assay [12], 57.9 µM (inactive). Moreover, the GI50 in assay [13], in [20], in assay [14], in assay [15] and in assay [18] was > 100 µM (inactive) throughout.
Regarding `Clc1ccc(CCn2ccc3ccccc32)c(Cl)c1`, the GI50 in assay [1], in assay [2], in [3], in [4], in assay [6] and in assay [7] was > 100 µM (inactive) each time. The GI50 in [8] is above 100 µM; in assay [9], > 100 µM (inactive); in assay [10], > 100 µM (inactive); in assay [11], > 100 µM (inactive); in assay [19] it was > 100 µM (inactive); in assay [12], > 100 µM (inactive). The GI50 in [13], in assay [20], in assay [14], in assay [15], in [16] and in assay [17] was > 100 µM (inactive) throughout. The GI50 in assay [18] was > 100 µM (inactive).
With `FC(F)(F)c1ccc2c(c1)nc1n2C(c2c(Cl)cccc2Cl)SC1` (stereo not given), the GI50 in [1] is 15.9 µM (inactive); in assay [2] it was 17.7 µM (inactive); in [3], 25.8 µM (inactive); in [4], 15.5 µM (inactive); in assay [5] it was 14.4 µM (inactive); in assay [7] it was 25.4 µM (inactive). Moreover, the GI50 in assay [8] was 21.6 µM; in [9], 15.4 µM (inactive); in assay [10], 22 µM (inactive); in assay [11], 16.1 µM (inactive); in [19] it was 14.2 µM (inactive); in [12], 15.1 µM (inactive). In addition, the GI50 in assay [13] was 19.1 µM (inactive); in assay [20], 18.9 µM (inactive); in [14], 15.4 µM (inactive); in assay [15] it was 17.3 µM (inactive); in assay [16], 18.2 µM (inactive); in assay [17], 16.6 µM (inactive). Besides, the GI50 in [18] was 20.7 µM (inactive).
On to `Cc1c2oc3c(C)ccc(C(=O)NC4C(=O)NC(C(C)O)C(=O)N5CCCC5C(=O)N(C)CC(=O)N(C)C(C(C)C)C(=O)OC4C)c3nc-2c(C(=O)NC2C(=O)NC(C(C)O)C(=O)N3CCCC3C(=O)N(C)CC(=O)N(C)C(C(C)C)C(=O)OC2C)c(N)c1=O` (stereo not given) (I: TTP[Sar][NMeV] / II: TTP[Sar][NMeV]; ester I:1-I:C, II:1-II:C; linker I:N-II:N via Actinocin(9to1); configuration not given here), for which the GI50 in assay [1] is 0.427 µM (active); in [2] it was 0.133 µM (active); in assay [3] it was 2.21 µM (inactive); in assay [4] it was 1.95 µM (inactive); in assay [5], 0.147 µM (active); in [6] it was 0.0448 µM (active). Also, the GI50 in assay [7] was 0.195 µM (active); in assay [8] it was 7.48 µM; in assay [9] it was 2 µM (inactive); in [10] it was 0.0766 µM (active); in assay [11], 0.34 µM (active); in assay [12], 0.198 µM (active). Further, the GI50 in assay [13] was 0.147 µM (active); in assay [20] it was 0.244 µM (active); in assay [14], 0.498 µM (active); in assay [15], 0.135 µM (active); in assay [16] it was 0.125 µM (active); in assay [17], 0.136 µM (active). The GI50 in [18] is < 0.01 µM (active).
As to `COc1ccc(C(=O)c2c3cc(OC)c(OC)c(OC)c3cc[n+]2C)cc1`, the GI50 was 26.5 µM (inactive) in assay [1]; 21.1 µM (inactive) in assay [2]; 38.4 µM (inactive) in assay [3]; > 100 µM (inactive) in assay [4]; 28.5 µM (inactive) in [5]; 20.1 µM (inactive) in [6]. The GI50 in [7] was 35.7 µM (inactive); in assay [9], 26 µM (inactive); in [10], 19.2 µM (inactive); in assay [11] it was 30.3 µM (inactive); in assay [19], 55.3 µM (inactive); in assay [12], 27.9 µM (inactive). The GI50 in assay [13] is 31 µM (inactive); in [14], 28.2 µM (inactive); in [15], 34.8 µM (inactive); in [16], 35 µM (inactive); in assay [17] it was 18.6 µM (inactive); in assay [18] it was 14.8 µM (inactive).
Consider `CC1=C2c3ccccc3N(C(=O)/C=C/C(=O)O)[C@H]2[C@H]2C(=O)OC(=O)[C@H]2C1`, for which the GI50 in [1], in assay [2], in assay [3], in assay [4], in assay [5] and in assay [7] was > 10 µM (inactive) in each case. The GI50 in assay [8] was above 10 µM; in [9], > 10 µM (inactive); in assay [10] it was > 10 µM (inactive); in assay [11] it was > 10 µM (inactive); in [19], > 10 µM (inactive); in assay [12], > 10 µM (inactive). In addition, the GI50 in [13], in [14], in [15], in assay [16] and in assay [18] was > 10 µM (inactive) throughout.
Turning to `CN(C)CC1CCC/C(=C\c2ccccc2)C1=O` (stereo not given), the GI50 in assay [1] was 3.5 µM (inactive); in assay [2] it was 5.5 µM (inactive); in assay [3] it was 19.8 µM (inactive); in assay [4] it was 15.6 µM (inactive); in [5], 2.23 µM (inactive); in assay [7], 3.94 µM (inactive). Moreover, the GI50 in assay [8] is 2.14 µM; in [9], 2.32 µM (inactive); in assay [10] it was 1.57 µM (inactive); in assay [11] it was 1.75 µM (inactive); in assay [19], 17.9 µM (inactive); in [12], 13.8 µM (inactive). The GI50 in assay [13] is 16.2 µM (inactive); in assay [20], 2.55 µM (inactive); in assay [14] it was 19.9 µM (inactive); in assay [15] it was 3.74 µM (inactive); in [16], 1.85 µM (inactive); in assay [17], 2.65 µM (inactive). Besides, the GI50 in assay [18] is 0.944 µM (active).
With `CN(C)N1C(=O)C(=O)N(c2cccc3ccccc23)C1=O`, the GI50 in assay [1], in assay [2], in [3], in [4], in [5] and in assay [6] was > 10 µM (inactive) throughout. Besides, the GI50 was > 10 µM (inactive) in assay [7]; above 10 µM in [8]; > 10 µM (inactive) in assay [9]; > 10 µM (inactive) in assay [10]; > 10 µM (inactive) in assay [11]; > 10 µM (inactive) in assay [19]. In addition, the GI50 in assay [12], in assay [13], in [14], in assay [15], in [16] and in [18] was > 10 µM (inactive) throughout.
